Experimental data from paper PMC7316994, “In Vitro Pharmacological Profile of a New Small Molecule Bradykinin B2 Receptor Antagonist” (Frontiers in Pharmacology, 2020).

How the values were obtained:
mouse B2 receptor = biological target: T1, mouse B2 receptor (Mus musculus, UniProt P32299); test: Ca^2+ mobilization assay, HEK293T cells; type: cell-based; settings: BK at EC80 0.53 nM, n=1
T1 construct: host or cells: HEK293T cells
T1 sequence (P32299 1-392): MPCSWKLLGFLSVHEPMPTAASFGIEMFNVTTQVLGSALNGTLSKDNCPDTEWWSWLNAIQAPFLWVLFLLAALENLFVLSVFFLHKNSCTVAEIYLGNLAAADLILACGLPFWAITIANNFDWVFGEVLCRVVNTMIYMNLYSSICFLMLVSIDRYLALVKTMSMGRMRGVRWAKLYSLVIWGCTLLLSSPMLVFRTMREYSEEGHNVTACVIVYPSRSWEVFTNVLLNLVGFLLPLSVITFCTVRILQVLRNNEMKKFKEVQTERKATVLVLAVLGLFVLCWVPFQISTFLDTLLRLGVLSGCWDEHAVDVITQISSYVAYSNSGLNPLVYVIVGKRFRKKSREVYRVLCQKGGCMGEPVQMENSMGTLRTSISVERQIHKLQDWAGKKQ

5-HT2A receptor = biological target: T2, 5-HT2A receptor (Homo sapiens, UniProt P28223); test: umbilical vein, serotonin-induced contraction; settings: Compound 2 10 μM; Compound 3 1 μM
T2 construct: other endogenously expressed receptors in the human umbilical vein; from tissue; host or cells: human umbilical vein rings
Text: The local ethics committee (CHU de Québec-Université Laval) had approved the project (File no. 2017-3720). Umbilical cords were obtained following elective caesarean sections; all problematic deliveries are excluded. Informed consent was obtained from the mothers. The cords were transported from the maternity ward to the laboratory in sterile Hank's balanced salt solution containing penicillin and streptomycin. Segments of umbilical veins were dissected carefully from the cords and a metal rod was inserted in the lumen. Excess connective tissue was excised and rings (2–3 mm wide) were cut. Rings of umbilical veins were suspended in 5-mL organ chambers containing oxygenated (95% O2, 5% CO2) and warmed (37°C) Krebs' solution between a metal hook and a thread loop. This solution had the following composition: NaCl 117.5 mM, KCl 4.7 mM, KH2PO4 1.2 mM, MgSO4 1.18 mM, CaCI2 2.5 mM, NaHCO3 25.0 mM, and D-glucose 5.5 mM. A baseline of one gram-weight was applied to these preparations. Changes of tension were recorded by using isometric transducers (model 52-9545, Harvard Bioscience, South Natick MA). Eight tissue baths are operated in parallel.
For this purpose, contractile responses to serotonin, acting on the 5-HT2A receptor, and U-46619, acting at the prostanoid TP receptor, were measured ([Rogines-Velo et al., 2002]; [Daray et al., 2003]).

Bradykinin B1 = biological target: T3, Bradykinin B1 (Homo sapiens, UniProt P46663); test: radioligand binding (Table S2)
T3 construct: host or cells: CHO cells
T3 sequence (P46663 whole entry): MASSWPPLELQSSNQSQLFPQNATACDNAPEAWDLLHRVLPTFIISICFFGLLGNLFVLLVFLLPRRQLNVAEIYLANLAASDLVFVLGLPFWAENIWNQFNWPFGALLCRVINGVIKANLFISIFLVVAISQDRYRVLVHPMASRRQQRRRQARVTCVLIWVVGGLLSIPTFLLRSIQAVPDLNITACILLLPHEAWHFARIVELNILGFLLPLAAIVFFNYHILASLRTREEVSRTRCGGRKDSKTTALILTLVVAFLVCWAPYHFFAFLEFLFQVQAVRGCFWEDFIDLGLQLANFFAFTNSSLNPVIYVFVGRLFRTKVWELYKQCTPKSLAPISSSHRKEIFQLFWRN

[1] = biological target: Calcitonin gene related peptide CGRP (Homo sapiens, UniProt O60894+Q16602); test: radioligand binding (Table S2); settings: [125I] hCGRPα, Human recombinant CHO cells
Calcitonin gene related peptide CGRP, sequence (Q16602 23-461): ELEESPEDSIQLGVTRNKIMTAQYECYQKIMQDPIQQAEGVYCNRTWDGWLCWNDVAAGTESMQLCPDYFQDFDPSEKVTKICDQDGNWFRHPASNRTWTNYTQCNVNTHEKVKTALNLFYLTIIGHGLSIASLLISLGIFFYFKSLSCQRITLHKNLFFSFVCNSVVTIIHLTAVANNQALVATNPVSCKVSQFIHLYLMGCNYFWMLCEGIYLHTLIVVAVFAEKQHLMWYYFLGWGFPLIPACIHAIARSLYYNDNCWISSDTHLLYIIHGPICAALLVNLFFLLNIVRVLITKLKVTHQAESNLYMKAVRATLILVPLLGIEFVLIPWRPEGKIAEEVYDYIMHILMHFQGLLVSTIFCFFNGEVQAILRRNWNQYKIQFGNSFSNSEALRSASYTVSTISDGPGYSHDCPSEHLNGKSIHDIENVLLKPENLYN
Calcitonin gene related peptide CGRP, sequence (O60894 27-148 partner): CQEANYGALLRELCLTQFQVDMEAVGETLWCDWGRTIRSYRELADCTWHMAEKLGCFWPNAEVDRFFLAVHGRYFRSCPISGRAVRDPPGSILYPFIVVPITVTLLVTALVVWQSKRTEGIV

Chemokine CCR1 = biological target: T4, Chemokine CCR1 (Homo sapiens, UniProt P32246); test: radioligand binding (Table S2); settings: [125I] MIP-1α, Human recombinant HEK-293 cells
T4 construct: host or cells: HEK-293 cells
T4 sequence (P32246 whole entry): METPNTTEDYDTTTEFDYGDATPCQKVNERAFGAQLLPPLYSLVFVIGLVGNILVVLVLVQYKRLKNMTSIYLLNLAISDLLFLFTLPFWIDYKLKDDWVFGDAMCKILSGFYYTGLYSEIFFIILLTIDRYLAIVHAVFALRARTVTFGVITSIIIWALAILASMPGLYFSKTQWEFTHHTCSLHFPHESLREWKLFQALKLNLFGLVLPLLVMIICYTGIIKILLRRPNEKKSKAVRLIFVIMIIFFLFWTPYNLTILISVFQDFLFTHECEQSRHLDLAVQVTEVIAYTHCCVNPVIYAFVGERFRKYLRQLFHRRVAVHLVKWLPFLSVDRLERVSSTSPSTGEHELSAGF

[2] = system: Chloride Cl- channel (GABA-gated); test: radioligand binding (Table S2); settings: [35S] TBPS, Rat cerebral cortex
[3] = system: Glutamate ionotropic, AMPA; test: radioligand binding (Table S2); settings: [3H] AMPA, Rat cerebral cortex
[4] = system: Glutamate, NMDA, phencyclidine; test: radioligand binding (Table S2); settings: [3H] TCP, Wistar rat cerebral cortex
[5] = system: Glycine, strychnine-sensitive; test: radioligand binding (Table S2); settings: [3H] Strychnine, Wistar rat spinal cord
Histamine H4 = biological target: T5, Histamine H4 (Homo sapiens, UniProt Q9H3N8); test: radioligand binding (Table S2); settings: [3H] Histamine, Human recombinant HEK-293 cells
T5 construct: host or cells: HEK-293 cells

Neuropeptide Y2 = biological target: T6, Neuropeptide Y2 (Homo sapiens, UniProt P49146); test: radioligand binding (Table S2); settings: [125I] Peptide YY, KAN-TYS cells
T6 construct: KAN-TYS cells; host or cells: KAN-TYS cells

Opioid µ (MOP) = biological target: T7, Opioid µ (MOP) (Homo sapiens, UniProt P35372); test: radioligand binding (Table S2); settings: [3H] DAMGO, Human recombinant HEK-293 cells
T7 construct: host or cells: HEK-293 cells
T7 sequence (P35372 whole entry): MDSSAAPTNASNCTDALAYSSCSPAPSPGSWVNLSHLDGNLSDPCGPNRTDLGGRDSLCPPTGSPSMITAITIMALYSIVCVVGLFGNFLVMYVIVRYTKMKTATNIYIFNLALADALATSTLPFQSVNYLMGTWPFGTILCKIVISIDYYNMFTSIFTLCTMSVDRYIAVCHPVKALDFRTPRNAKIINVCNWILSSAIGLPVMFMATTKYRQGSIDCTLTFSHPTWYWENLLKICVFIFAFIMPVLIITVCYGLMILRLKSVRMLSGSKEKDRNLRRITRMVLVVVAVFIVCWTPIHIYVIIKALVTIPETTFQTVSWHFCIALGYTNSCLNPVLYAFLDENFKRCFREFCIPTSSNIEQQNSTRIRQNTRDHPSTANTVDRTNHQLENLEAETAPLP

[6] = system: Potassium channel voltage gated KV channel; type: binding; settings: [125I] α-dendrotoxin, Rat cerebral cortex
Prostanoid FP = biological target: T8, Prostanoid FP (Homo sapiens, UniProt P43088); test: radioligand binding (Table S2); settings: [3H] Prostaglandin F2α, Human recombinant HEK-293 cells
T8 construct: host or cells: HEK-293 cells
T8 sequence (P43088 whole entry): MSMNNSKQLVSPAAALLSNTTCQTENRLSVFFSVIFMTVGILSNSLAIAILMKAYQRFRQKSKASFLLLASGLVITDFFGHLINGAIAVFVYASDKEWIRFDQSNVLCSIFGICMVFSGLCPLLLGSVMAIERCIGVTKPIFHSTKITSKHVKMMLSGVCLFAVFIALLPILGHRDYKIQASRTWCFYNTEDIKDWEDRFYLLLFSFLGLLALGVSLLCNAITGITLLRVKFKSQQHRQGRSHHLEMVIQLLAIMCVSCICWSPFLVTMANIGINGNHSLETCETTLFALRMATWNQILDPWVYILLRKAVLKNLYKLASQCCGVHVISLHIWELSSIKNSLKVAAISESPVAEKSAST

Adenosine A1 = Adenosine A1 (Homo sapiens, UniProt P30542); test: functional assay, impedance, CHO cells (Table S2); type: cell-based; settings: read-out: % inhibition of reference agonist response @ 10 µM (antagonist effect), CPA (1 nM)
Adenosine A1, sequence (P30542 whole entry): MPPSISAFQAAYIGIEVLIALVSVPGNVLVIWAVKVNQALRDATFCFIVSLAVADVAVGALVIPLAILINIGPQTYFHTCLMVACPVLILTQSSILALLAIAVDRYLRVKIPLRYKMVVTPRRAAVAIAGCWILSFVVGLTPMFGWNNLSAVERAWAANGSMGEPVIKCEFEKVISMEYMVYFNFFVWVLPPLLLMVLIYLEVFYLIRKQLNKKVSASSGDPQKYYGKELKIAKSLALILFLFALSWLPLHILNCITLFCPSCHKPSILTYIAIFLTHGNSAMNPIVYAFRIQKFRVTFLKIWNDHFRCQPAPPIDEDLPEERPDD

Vasopressin V1a = biological target: T9, Vasopressin V1a (Homo sapiens, UniProt P37288); test: functional assay, intracellular [Ca2+], CHO cells (Table S2); type: cell-based; settings: AVP (10 nM)
T9 construct: host or cells: CHO cells
T9 sequence (P37288 whole entry): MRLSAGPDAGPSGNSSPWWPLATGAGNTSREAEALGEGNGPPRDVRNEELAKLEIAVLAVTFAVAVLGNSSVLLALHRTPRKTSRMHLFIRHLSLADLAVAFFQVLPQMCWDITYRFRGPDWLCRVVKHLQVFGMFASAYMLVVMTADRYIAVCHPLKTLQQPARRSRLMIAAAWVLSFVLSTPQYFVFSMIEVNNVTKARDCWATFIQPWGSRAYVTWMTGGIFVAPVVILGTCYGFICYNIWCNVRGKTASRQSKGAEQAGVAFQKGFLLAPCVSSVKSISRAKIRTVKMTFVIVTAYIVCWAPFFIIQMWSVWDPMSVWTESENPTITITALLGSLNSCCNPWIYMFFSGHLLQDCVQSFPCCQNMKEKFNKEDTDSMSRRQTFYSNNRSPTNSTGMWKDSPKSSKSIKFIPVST

Potassium channel hERG = Potassium channel hERG (Homo sapiens, UniProt Q12809); test: in vitro
Adrenergic β1 = Adrenergic β1 (Homo sapiens, UniProt P08588); test: radioligand binding (Table S2); settings: read-out: % Inhibition @ 10 µM
Adrenergic β1, sequence (P08588 whole entry): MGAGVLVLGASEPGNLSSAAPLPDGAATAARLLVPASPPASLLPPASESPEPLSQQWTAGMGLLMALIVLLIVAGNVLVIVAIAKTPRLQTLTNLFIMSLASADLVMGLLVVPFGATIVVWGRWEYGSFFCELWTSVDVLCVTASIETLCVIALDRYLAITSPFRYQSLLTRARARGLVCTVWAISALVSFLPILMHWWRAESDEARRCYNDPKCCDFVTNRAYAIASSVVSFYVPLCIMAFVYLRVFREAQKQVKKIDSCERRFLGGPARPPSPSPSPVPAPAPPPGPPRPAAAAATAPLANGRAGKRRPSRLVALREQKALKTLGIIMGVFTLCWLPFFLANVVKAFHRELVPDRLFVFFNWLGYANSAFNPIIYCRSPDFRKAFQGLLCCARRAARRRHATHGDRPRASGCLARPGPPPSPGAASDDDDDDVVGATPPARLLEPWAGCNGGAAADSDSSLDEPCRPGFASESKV

[7] = system: Gamma-aminobutyric acid GABAA, muscimol, central; test: radioligand binding (Table S2); settings: [3H] Muscimol, Wistar rat brain (minus cerebellum)
[8] = biological target: Gamma-aminobutyric acid GABAB1A (Homo sapiens, UniProt Q9UBS5); test: radioligand binding (Table S2); settings: read-out: % Inhibition @ 10 µM
Gamma-aminobutyric acid GABAB1A, sequence (Q9UBS5 15-961 limits assumed): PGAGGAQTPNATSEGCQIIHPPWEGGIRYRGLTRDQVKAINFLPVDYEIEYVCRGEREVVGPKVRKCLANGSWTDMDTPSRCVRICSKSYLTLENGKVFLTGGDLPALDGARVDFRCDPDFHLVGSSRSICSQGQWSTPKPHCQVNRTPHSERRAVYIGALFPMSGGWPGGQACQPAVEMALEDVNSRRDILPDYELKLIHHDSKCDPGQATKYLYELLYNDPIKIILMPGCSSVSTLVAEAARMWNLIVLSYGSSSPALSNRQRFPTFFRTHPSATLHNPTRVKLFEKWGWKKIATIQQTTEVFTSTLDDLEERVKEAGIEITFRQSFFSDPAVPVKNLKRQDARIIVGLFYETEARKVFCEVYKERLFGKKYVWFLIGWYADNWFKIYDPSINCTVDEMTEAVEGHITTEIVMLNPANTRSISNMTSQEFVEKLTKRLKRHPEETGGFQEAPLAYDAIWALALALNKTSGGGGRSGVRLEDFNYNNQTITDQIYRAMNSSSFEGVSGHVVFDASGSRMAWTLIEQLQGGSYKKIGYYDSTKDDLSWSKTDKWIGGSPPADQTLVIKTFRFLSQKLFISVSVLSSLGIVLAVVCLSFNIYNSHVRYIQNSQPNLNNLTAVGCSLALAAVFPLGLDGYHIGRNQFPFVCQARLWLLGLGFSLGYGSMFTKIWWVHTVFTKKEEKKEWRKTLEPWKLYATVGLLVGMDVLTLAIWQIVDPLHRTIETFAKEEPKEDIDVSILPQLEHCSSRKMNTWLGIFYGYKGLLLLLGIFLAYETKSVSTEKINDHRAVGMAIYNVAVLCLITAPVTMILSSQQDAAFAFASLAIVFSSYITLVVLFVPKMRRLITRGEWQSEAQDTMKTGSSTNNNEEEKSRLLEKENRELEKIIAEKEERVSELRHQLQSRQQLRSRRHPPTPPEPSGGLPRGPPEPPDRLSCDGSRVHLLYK

Muscarinic M1 = Muscarinic M1 (Homo sapiens, UniProt P11229); test: radioligand binding (Table S2); settings: read-out: % Inhibition @ 10 µM
Muscarinic M1, sequence (P11229 whole entry): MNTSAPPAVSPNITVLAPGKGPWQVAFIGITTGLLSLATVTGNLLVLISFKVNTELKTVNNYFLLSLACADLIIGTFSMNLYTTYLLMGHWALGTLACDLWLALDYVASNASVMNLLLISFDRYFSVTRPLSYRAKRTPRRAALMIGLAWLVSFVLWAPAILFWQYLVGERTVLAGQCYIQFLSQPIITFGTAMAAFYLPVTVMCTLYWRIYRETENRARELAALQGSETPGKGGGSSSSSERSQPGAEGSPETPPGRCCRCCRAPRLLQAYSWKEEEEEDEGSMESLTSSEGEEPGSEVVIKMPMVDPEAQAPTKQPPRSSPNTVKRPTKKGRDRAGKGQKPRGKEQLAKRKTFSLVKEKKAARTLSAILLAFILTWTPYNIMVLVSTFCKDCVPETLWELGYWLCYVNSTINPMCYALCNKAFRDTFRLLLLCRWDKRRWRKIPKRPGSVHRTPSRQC

SMILES: Cc1cc(-c2ncnn2C)c2cccc(OCc3c(Cl)cc(F)cc3[C@H](C)NC(=O)COC(F)F)c2n1 [Compound 3, (S)-N-(1-(3-chloro-5-fluoro-2-((2-methyl-4-(1-methyl-1H-1,2,4-triazol-5-yl)quinolin-8-yloxy)methyl)phenyl)ethyl)-2-(difluoromethoxy)acetamide]
- IC50 (mouse B2 receptor): ~1200 nM
- Kb (mouse B2 receptor): ~350 nM
- effect on serotonin-induced contraction (5-HT2A receptor): Lack of antagonist effect
- inhibition at 10 µM (Bradykinin B1): 0.5%
- inhibition at 10 µM [1]: -26.1%
- inhibition at 10 µM (Chemokine CCR1): -9.6%
- % Inhibition @ 10 µM [2]: 32.9%
- % Inhibition @ 10 µM [3]: 3.0%
- % Inhibition @ 10 µM [4]: -2%
- % Inhibition @ 10 µM [5]: -1%
- inhibition at 10 µM (Histamine H4): -2.8%
- inhibition at 10 µM (Neuropeptide Y2): -19.1%
- inhibition at 10 µM (Opioid µ (MOP)): 13.6%
- % Inhibition @ 10 µM [6]: 2.3%
- inhibition at 10 µM (Prostanoid FP): 19%
- inhibition at 10 µM (Adenosine A1): -2.3%
- IC50 (Vasopressin V1a; read-out: IC50 (µM), functional antagonism): 9.1 µM
- Kb (Vasopressin V1a; read-out: Kb (µM), functional antagonism): 0.31 µM
- inhibition at 10 µM (Vasopressin V1a; CHO, read-out: % inhibition of reference agonist response @ 10 µM (antagonist effect), 10 µM): 51.9%
- inhibition at 60 min, 10 µM (Potassium channel hERG): 17.8%
- inhibition at 10 µM (Adrenergic β1): 0.3%
- % Inhibition @ 10 µM [7]: 12%
- inhibition at 10 µM [8]: 8%
- inhibition at 10 µM (Muscarinic M1): 3.7%
